Consider two molecules from paper PMC12447640, “Design, synthesis, and biological assessment of a novel series of coumarin-tethered thiazole derivatives as potential antibacterial agents” (Frontiers in Chemistry, 2025).

This experiment addresses T1, DNA gyrase B (E. coli DNA gyrase, supercoiling) (Escherichia coli, UniProt P0AES6).
T1 construct: gene gyrB; with DNA gyrase subunit A (GyrA)
Briefly: E. coli DNA gyrase supercoiling microplate assay kit (Inspiralis). The format is biochemical.

In general, IC50 refers to the concentration that gives 50% inhibition. Low readings indicate inhibition by little substance, high ones a need for much substance. `CC(=NNc1nc(C)c(N=Nc2ccccc2)s1)c1cc2ccc(O)cc2oc1=O` [6a, 7-Hydroxy-3-(-1-{2-[4-methyl-5-(phenyldiazenyl)thiazol-2-yl]hydrazono}ethyl)-2H-chromen-2-one]: inhibition was half-maximal at 56.6 µM (IC50).

`CC(=NNc1nc(C)c(N=Nc2ccc(F)cc2)s1)c1cc2ccc(O)cc2oc1=O` [6c, 3-(-1-{2-[5-((4-fluorophenyl)diazenyl)-4-methylthiazol-2-yl]hydrazono}ethyl)-7-hydroxy-2H-chromen-2-one]: the IC50 was 93.4 µM.
